Holding throughout (format): biochemical
For one test, the target named is CDK1/CCNB1 (Homo sapiens, UniProt P06493). The test is described as follows: CDK1 homogeneous time-resolved fluorescence (HTRF) kinase assay. The conditions noted are these: >250 nM; CDK1/CCNB; read-out: CDK1/CCNB IC50 >250 nM. The procedure, abridged:
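Kinase activity is measured as Lance signal (665 nm, or 665/615 nm ratio) from europium-labelled anti-phospho-Thr37/46 antibody binding ULight-4E-BP1 peptide. Reactions contain 0.5 nM enzyme, 1 mM ATP, 1% DMSO and run 60 min at 23 °C before EDTA quench.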
A general note: TR-FRET usually uses a lanthanide donor and a delayed reading to cut background.

For the next test, the target named is CDK2/CCNE1 (Homo sapiens, UniProt P24941). The test is described as follows: CDK2 homogeneous time-resolved fluorescence (HTRF) kinase assay. The conditions noted are these: CDK2/CCNE. An outline of the steps:
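CDK2/CCNE1 (3 nM) preincubated 20 min at 23 °C with compound, then reacted 60 min at 23 °C with 1 mM ATP and 50 nM ULight-4E-BP1 (Thr37/46) peptide. Stopped with EDTA, phospho-peptide detected by Eu-anti-phospho antibody (665 nm or 665/615 ratio). IC50 from 11-point half-log titrations typically starting at 10 μM.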

The next test deals with CDK6/CCND1 (Homo sapiens, UniProt Q00534). The test is described as follows: CDK6 homogeneous time-resolved fluorescence (HTRF) kinase assay. The note with it: CDK6/CCND, 1 mM ATP. The procedure, abridged: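 Enzyme pre-incubated 20 min at 23 °C with compound, then reacted 60 min at 23 °C with 1 mM ATP and 50 nM ULight-4E-BP1 (Thr37/46) peptide; 1 nM enzyme, 1% DMSO. EDTA-stopped, Eu-anti-phospho antibody TR-FRET read (665 nm or 665/615 ratio); 11-point half-log titration from 10 μM gave IC50.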

The target in the next test is CDK4/CCND3 (Homo sapiens, UniProt P11802). The test is described as follows: CDK4 homogeneous time-resolved fluorescence (HTRF) kinase assay. The conditions noted are these: CDK4/CCND. The procedure, abridged: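 CDK4/CCND3 at 1.5 nM was preincubated with compound for 20 min at 23 °C, then reacted for 60 min with 1 mM ATP and 50 nM ULight-4E-BP1 (Thr37/46) peptide. The reaction was stopped with EDTA, and phosphorylation was read by HTRF with a Eu-anti-phospho antibody. IC50 values came from 11-point half-log titrations, typically from 10 μM.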

Where [1] appears, read: <25 nM, read-out: CDK2/CCNE IC50, <25 nM.
Setting [2] is: >250 nM, read-out: CDK6/CCND IC50, >250 nM.
Where [3] appears, read: >250 nM, read-out: CDK4/CCND IC50, >250 nM.
[4] abbreviates: 25-250 nM, read-out: CDK2/CCNE IC50, 25-250 nM.
[5] abbreviates: 25-250 nM, read-out: CDK6/CCND IC50, 25-250 nM.
Where [6] appears, read: 25-250 nM, read-out: CDK4/CCND IC50, 25-250 nM.

The text below walks through data of patent US20260325533A1, “CDK INHIBITOR COMPOUNDS” (ALEKSIA THERAPEUTICS, INC., priority 2023, published 2026).

Read-outs that look alike come from different tables or passages of the source. Some results are limits rather than exact numbers.

Chain of CDK4/CCND3 (P11802 whole entry): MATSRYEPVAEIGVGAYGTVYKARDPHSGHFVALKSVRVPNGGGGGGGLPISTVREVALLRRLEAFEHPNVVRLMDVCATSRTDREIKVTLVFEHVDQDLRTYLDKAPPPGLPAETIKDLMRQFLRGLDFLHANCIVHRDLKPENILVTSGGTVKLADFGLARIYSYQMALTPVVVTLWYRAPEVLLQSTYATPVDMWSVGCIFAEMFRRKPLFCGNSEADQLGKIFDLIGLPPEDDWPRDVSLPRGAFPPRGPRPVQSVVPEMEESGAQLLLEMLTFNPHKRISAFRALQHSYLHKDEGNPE
Chain of CDK4/CCND3 (P30281 whole entry partner): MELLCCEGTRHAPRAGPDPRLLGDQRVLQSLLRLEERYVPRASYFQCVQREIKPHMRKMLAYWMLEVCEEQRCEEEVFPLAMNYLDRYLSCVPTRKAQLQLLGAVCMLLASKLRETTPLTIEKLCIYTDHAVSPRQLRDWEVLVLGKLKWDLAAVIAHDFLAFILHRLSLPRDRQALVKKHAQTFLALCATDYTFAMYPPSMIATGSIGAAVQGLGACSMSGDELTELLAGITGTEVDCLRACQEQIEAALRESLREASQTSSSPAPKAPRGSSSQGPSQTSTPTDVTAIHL
Chain of CDK6/CCND1 (Q00534 whole entry): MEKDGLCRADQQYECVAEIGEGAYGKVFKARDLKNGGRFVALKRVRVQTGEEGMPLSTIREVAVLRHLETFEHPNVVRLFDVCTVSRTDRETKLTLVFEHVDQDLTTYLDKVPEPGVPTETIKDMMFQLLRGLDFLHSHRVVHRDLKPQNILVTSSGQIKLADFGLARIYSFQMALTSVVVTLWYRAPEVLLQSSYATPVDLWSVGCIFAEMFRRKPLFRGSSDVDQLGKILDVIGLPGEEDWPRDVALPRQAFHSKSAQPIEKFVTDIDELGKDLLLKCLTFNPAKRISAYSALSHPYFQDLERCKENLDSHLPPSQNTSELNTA
Chain of CDK6/CCND1 (P24385 whole entry partner): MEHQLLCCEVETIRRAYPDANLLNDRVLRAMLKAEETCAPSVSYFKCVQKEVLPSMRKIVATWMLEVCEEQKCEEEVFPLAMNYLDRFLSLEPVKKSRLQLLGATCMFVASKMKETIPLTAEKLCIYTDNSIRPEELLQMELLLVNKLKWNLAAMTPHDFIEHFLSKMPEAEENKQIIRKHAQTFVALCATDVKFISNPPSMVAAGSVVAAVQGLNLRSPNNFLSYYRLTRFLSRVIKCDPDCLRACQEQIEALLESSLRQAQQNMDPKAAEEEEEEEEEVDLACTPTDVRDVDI
Chain of CDK1/CCNB1 (P06493 whole entry): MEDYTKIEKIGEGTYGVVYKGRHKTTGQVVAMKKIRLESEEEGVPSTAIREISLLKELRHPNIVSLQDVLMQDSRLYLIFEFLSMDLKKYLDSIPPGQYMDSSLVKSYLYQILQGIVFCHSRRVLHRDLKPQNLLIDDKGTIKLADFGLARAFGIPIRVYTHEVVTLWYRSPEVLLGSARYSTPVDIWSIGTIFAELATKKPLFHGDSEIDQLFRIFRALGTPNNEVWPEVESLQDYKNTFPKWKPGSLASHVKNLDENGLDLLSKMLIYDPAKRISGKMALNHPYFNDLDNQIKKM
Chain of CDK1/CCNB1 (P14635 whole entry partner): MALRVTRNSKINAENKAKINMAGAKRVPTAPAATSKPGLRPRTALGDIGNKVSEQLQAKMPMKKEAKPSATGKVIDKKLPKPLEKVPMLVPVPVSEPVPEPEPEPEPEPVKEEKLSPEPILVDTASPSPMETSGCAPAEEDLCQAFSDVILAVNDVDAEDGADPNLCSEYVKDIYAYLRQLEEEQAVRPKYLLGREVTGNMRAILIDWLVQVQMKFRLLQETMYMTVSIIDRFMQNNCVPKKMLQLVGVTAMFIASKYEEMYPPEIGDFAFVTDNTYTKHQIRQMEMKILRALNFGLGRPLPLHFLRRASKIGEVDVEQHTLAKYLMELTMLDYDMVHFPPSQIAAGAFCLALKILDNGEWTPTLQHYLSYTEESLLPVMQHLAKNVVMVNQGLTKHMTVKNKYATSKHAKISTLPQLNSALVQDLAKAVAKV

In the case of `COc1ccnc(NS(=O)(=O)c2ccc(Nc3cc4c(-c5ccc6c(cnn6CC(O)(C(F)(F)F)C(F)(F)F)c5C)nccc4cn3)cc2)n1` [Ex 737, N-(4-methoxypyrimidin-2-yl)-4-((5-(4-methyl-1-(3,3,3-trifluoro-2-hydroxy-2-(trifluoromethyl)propyl)-1H-indazol-5-yl)-2,6-naphthyridin-3-yl)amino)benzenesulfonamide], the IC50 at CDK1/CCNB1 was greater than 250 nM; at CDK2/CCNE1 (setting [1]) it was less than 25 nM; on CDK6/CCND1 (setting [2]) it was greater than 250 nM; at CDK4/CCND3 (setting [3]), greater than 250 nM.
Turning to `Cc1c(-c2nccc3cnc(Nc4ccc(S(=O)(=O)Nc5cccc(N6CCOCC6)c5)cc4)cc23)ccc2c1cnn2CC(O)(C(F)(F)F)C(F)(F)F` [Ex 738, 4-((5-(4-methyl-1-(3,3,3-trifluoro-2-hydroxy-2-(trifluoromethyl)propyl)-1H-indazol-5-yl)-2,6-naphthyridin-3-yl)amino)-N-(3-morpholinophenyl)benzenesulfonamide], the IC50 on CDK1/CCNB1 is greater than 250 nM; at CDK2/CCNE1 (setting [4]) it was 25 to 250 nM; on CDK6/CCND1 (setting [2]) it was greater than 250 nM; at CDK4/CCND3 (setting [3]), greater than 250 nM.
As to `COc1cc(NS(=O)(=O)c2ccc(Nc3cc4c(-c5ccc6c(cnn6CC(O)(C(F)(F)F)C(F)(F)F)c5C)nccc4cn3)cc2)cc(OC)c1` [Ex 739, N-(3,5-dimethoxyphenyl)-4-((5-(4-methyl-1-(3,3,3-trifluoro-2-hydroxy-2-(trifluoromethyl)propyl)-1H-indazol-5-yl)-2,6-naphthyridin-3-yl)amino)benzenesulfonamide], the IC50 is greater than 250 nM at CDK1/CCNB1, 25 to 250 nM on CDK2/CCNE1 (setting [4]), greater than 250 nM at CDK6/CCND1 (setting [2]) and greater than 250 nM at CDK4/CCND3 (setting [3]).
As for `Cc1c(-c2nccc3cnc(Nc4ccc(S(=O)(=O)Nc5cc(C(F)(F)F)ccn5)cc4)cc23)ccc2c1cnn2CC(O)(C(F)(F)F)C(F)(F)F` [Ex 740, 4-((5-(4-methyl-1-(3,3,3-trifluoro-2-hydroxy-2-(trifluoromethyl)propyl)-1H-indazol-5-yl)-2,6-naphthyridin-3-yl)amino)-N-(4-(trifluoromethyl)pyridin-2-yl)benzenesulfonamide], the IC50 on CDK1/CCNB1 was greater than 250 nM; at CDK2/CCNE1 (>250 nM, read-out: CDK2/CCNE IC50, >250 nM), greater than 250 nM; at CDK6/CCND1 (setting [2]), greater than 250 nM; at CDK4/CCND3 (setting [3]), greater than 250 nM.
As for `Cc1c(-c2nccc3cnc(Nc4ccc(S(=O)(=O)Nc5cc(N6CCOCC6)ccn5)cc4)cc23)ccc2c1cnn2CC(O)(C(F)(F)F)C(F)(F)F` [Ex 741, 4-((5-(4-methyl-1-(3,3,3-trifluoro-2-hydroxy-2-(trifluoromethyl)propyl)-1H-indazol-5-yl)-2,6-naphthyridin-3-yl)amino)-N-(4-morpholinopyridin-2-yl)benzenesulfonamide], the IC50 is greater than 250 nM at CDK1/CCNB1, less than 25 nM on CDK2/CCNE1 (setting [1]), greater than 250 nM at CDK6/CCND1 (setting [2]) and greater than 250 nM on CDK4/CCND3 (setting [3]).
In the case of `COc1cc(NS(=O)(=O)c2ccc(Nc3cc4c(-c5ccc6c(cnn6CC(O)(C(F)(F)F)C(F)(F)F)c5C)nccc4cn3)cc2)nc(OC)c1` [Ex 742, N-(4,6-dimethoxypyridin-2-yl)-4-((5-(4-methyl-1-(3,3,3-trifluoro-2-hydroxy-2-(trifluoromethyl)propyl)-1H-indazol-5-yl)-2,6-naphthyridin-3-yl)amino)benzenesulfonamide], the IC50 on CDK1/CCNB1 was greater than 250 nM; on CDK2/CCNE1 (setting [4]) it was 25 to 250 nM; on CDK6/CCND1 (setting [2]), greater than 250 nM; on CDK4/CCND3 (setting [3]), greater than 250 nM.
As for `COc1cnc(NS(=O)(=O)c2ccc(Nc3cc4c(-c5ccc6c(cnn6CC(O)(C(F)(F)F)C(F)(F)F)c5C)nccc4cn3)cc2)nc1` [Ex 743, N-(5-methoxypyrimidin-2-yl)-4-((5-(4-methyl-1-(3,3,3-trifluoro-2-hydroxy-2-(trifluoromethyl)propyl)-1H-indazol-5-yl)-2,6-naphthyridin-3-yl)amino)benzenesulfonamide], the IC50 at CDK1/CCNB1 is greater than 250 nM; on CDK2/CCNE1 (setting [1]), less than 25 nM; at CDK6/CCND1 (setting [2]), greater than 250 nM; at CDK4/CCND3 (setting [3]), greater than 250 nM.
Turning to `Cc1c(-c2nccc3cnc(Nc4ccc(S(=O)(=O)Nc5nccc(C(F)(F)F)n5)cc4)cc23)ccc2c1cnn2CC(O)(C(F)(F)F)C(F)(F)F` [Ex 744, 4-((5-(4-methyl-1-(3,3,3-trifluoro-2-hydroxy-2-(trifluoromethyl)propyl)-1H-indazol-5-yl)-2,6-naphthyridin-3-yl)amino)-N-(4-(trifluoromethyl)pyrimidin-2-yl)benzenesulfonamide], the IC50 at CDK1/CCNB1 is greater than 250 nM; on CDK2/CCNE1 (setting [4]) it was 25 to 250 nM; at CDK6/CCND1 (setting [2]) it was greater than 250 nM; on CDK4/CCND3 (setting [3]) it was greater than 250 nM.
For `COc1cc(OC)nc(NS(=O)(=O)c2ccc(Nc3cc4c(-c5ccc6c(cnn6CC(O)(C(F)(F)F)C(F)(F)F)c5C)nccc4cn3)cc2)n1` [Ex 745, N-(4,6-dimethoxypyrimidin-2-yl)-4-((5-(4-methyl-1-(3,3,3-trifluoro-2-hydroxy-2-(trifluoromethyl)propyl)-1H-indazol-5-yl)-2,6-naphthyridin-3-yl)amino)benzenesulfonamide], the IC50 was greater than 250 nM on CDK1/CCNB1, 25 to 250 nM at CDK2/CCNE1 (setting [4]), greater than 250 nM at CDK6/CCND1 (setting [2]) and greater than 250 nM at CDK4/CCND3 (setting [3]).
As for `Cc1c(-c2nccc3cnc(Nc4ccc(S(=O)(=O)N[C@@H](C)CCO)cc4)cc23)ccc2c1cnn2CC(C)(C)O` [Ex 746, (S)-4-((5-(1-(2-hydroxy-2-methylpropyl)-4-methyl-1H-indazol-5-yl)-2,6-naphthyridin-3-yl)amino)-N-(4-hydroxybutan-2-yl)benzenesulfonamide], the IC50 on CDK1/CCNB1 is greater than 250 nM; at CDK2/CCNE1 (setting [1]), less than 25 nM; on CDK6/CCND1 (setting [5]), 25 to 250 nM; at CDK4/CCND3 (setting [6]), 25 to 250 nM.
Regarding `Cc1c(-c2nccc3cnc(Nc4ccc(S(=O)(=O)N[C@H](C)CCO)cc4)cc23)ccc2c1cnn2CC(C)(C)O` [Ex 747, (R)-4-((5-(1-(2-hydroxy-2-methylpropyl)-4-methyl-1H-indazol-5-yl)-2,6-naphthyridin-3-yl)amino)-N-(4-hydroxybutan-2-yl)benzenesulfonamide], the IC50 was greater than 250 nM at CDK1/CCNB1, less than 25 nM at CDK2/CCNE1 (setting [1]), 25 to 250 nM on CDK6/CCND1 (setting [5]) and 25 to 250 nM on CDK4/CCND3 (setting [6]).
Regarding `Cc1c(-c2nccc3cnc(Nc4ccc(NS(=O)(=O)c5nccs5)cc4)cc23)ccc2c1cnn2CC(C)(C)O` [Ex 748, N-(4-((5-(1-(2-hydroxy-2-methylpropyl)-4-methyl-1H-indazol-5-yl)-2,6-naphthyridin-3-yl)amino)phenyl)thiazole-2-sulfonamide], the IC50 on CDK1/CCNB1 was greater than 250 nM; at CDK2/CCNE1 (setting [1]), less than 25 nM; on CDK6/CCND1 (setting [2]) it was greater than 250 nM; at CDK4/CCND3 (setting [3]), greater than 250 nM.
On to `Cc1c(-c2nccc3cnc(Nc4ccc(S(C)(=O)=O)c(Br)c4)cc23)ccc2c1cnn2CC(C)(C)O` [Ex 749, 1-(5-(7-((3-bromo-4-(methylsulfonyl)phenyl)amino)-2,6-naphthyridin-1-yl)-4-methyl-1H-indazol-1-yl)-2-methylpropan-2-ol], for which the IC50 at CDK1/CCNB1 is greater than 250 nM; on CDK2/CCNE1 (setting [4]) it was 25 to 250 nM; at CDK6/CCND1 (setting [2]) it was greater than 250 nM; on CDK4/CCND3 (setting [3]) it was greater than 250 nM.
For `Cc1c(-c2nccc3cnc(Nc4ccc(S(C)(=O)=O)cc4Br)cc23)ccc2c1cnn2CC(C)(C)O` [Ex 750, 1-(5-(7-((2-bromo-4-(methylsulfonyl)phenyl)amino)-2,6-naphthyridin-1-yl)-4-methyl-1H-indazol-1-yl)-2-methylpropan-2-ol], the IC50 on CDK1/CCNB1 is greater than 250 nM; on CDK2/CCNE1 (setting [4]), 25 to 250 nM; at CDK6/CCND1 (setting [2]) it was greater than 250 nM; on CDK4/CCND3 (setting [3]), greater than 250 nM.
For the compound `Cc1c(-c2nccc3cnc(Nc4ccc(NS(=O)(=O)c5cccc(N6CCN(C)CC6)c5)cc4)cc23)ccc2c1cnn2CC(C)(C)O` [Ex 751, N-(4-((5-(1-(2-hydroxy-2-methylpropyl)-4-methyl-1H-indazol-5-yl)-2,6-naphthyridin-3-yl)amino)phenyl)-3-(4-methylpiperazin-1-yl)benzenesulfonamide], the IC50 at CDK1/CCNB1 was greater than 250 nM; on CDK2/CCNE1 (setting [1]) it was less than 25 nM; at CDK6/CCND1 (setting [2]), greater than 250 nM; on CDK4/CCND3 (setting [3]), greater than 250 nM.
Consider `Cc1c(-c2nccc3cnc(Nc4ccc(NS(=O)(=O)c5cccc(N6CCOCC6)c5)cc4)cc23)ccc2c1cnn2CC(C)(C)O` [Ex 753, N-(4-((5-(1-(2-hydroxy-2-methylpropyl)-4-methyl-1H-indazol-5-yl)-2,6-naphthyridin-3-yl)amino)phenyl)-3-morpholinobenzenesulfonamide], for which the IC50 is greater than 250 nM at CDK1/CCNB1, less than 25 nM on CDK2/CCNE1 (setting [1]), greater than 250 nM on CDK6/CCND1 (setting [2]) and greater than 250 nM on CDK4/CCND3 (setting [3]).
